Residues, ends and D or L forms follow the SMILES beside them.
How the values were obtained:
Haemophilus influenzae = assay: Inhibition zone assay (agar plate); type: cell-based; conditions: 50 nanomoles/well, 3 mm wells
Klebsiella pneumoniae = assay: Inhibition zone assay (agar plate); type: cell-based; conditions: agar plate, 50 nanomoles/well, 3 mm wells
M. morganii = assay: Minimal inhibitory concentration (liquid culture); conditions: inoculum 400 CFU/ml; a-b = highest concentration with growth - lowest without growth
Erwinia amylovora = assay: Inhibition zone assay (agar plate); type: cell-based; conditions: agar plate, 50 nanomoles/well, 3 mm wells
A. calcoaceticus = assay: Minimal inhibitory concentration (liquid culture); conditions: inoculum 16 × 10^6 CFU/ml; a-b = highest concentration with growth - lowest without growth
Campylobacter jejuni = assay: Inhibition zone assay (agar plate); type: cell-based; conditions: 50 nanomoles/well, 3 mm wells
[1] = test system: Escherichia coli (ATCC11775); assay: Inhibition zone assay (agar plate); type: cell-based; conditions: agar plate, 50 nanomoles/well, 3 mm wells
E. coli Apid^R = assay: Minimal inhibitory concentration (liquid culture); type: cell-based; conditions: a-b = highest concentration with growth - lowest without growth
From the text: For details see `Experimental Procedures`.

[2] = test system: Agrobacterium tumefaciens; assay: Inhibition zone assay (agar plate); type: cell-based; conditions: agar plate, 50 nanomoles/well, 3 mm wells
Y. enterocolitica = assay: Minimal inhibitory concentration (liquid culture); conditions: inoculum 5000 CFU/ml; a-b = highest concentration with growth - lowest without growth
Pseudomonas syringae = assay: Inhibition zone assay (agar plate); type: cell-based; conditions: agar plate, 50 nanomoles/well, 3 mm wells
Morganella morganii = assay: Inhibition zone assay (agar plate); type: cell-based; conditions: 50 nanomoles/well, 3 mm wells
Rhizobium meliloti = assay: Inhibition zone assay (agar plate); type: cell-based; conditions: 50 nanomoles/well, 3 mm wells
[3] = test system: Escherichia coli (11775 Apid R); type: cell-based; conditions: agar plate, 50 nanomoles/well, 3 mm wells
[4] = test system: Acinetobacter calcoaceticus; assay: Inhibition zone assay (agar plate); type: cell-based; conditions: agar plate, 50 nanomoles/well, 3 mm wells
E. coli 11775 = assay: Minimal inhibitory concentration (liquid culture); conditions: for minimal inhibitory concentration (MIC): a-b = highest concentration with growth - lowest without growth
Shigella dysenteriae = type: cell-based; conditions: agar plate, 50 nanomoles/well, 3 mm wells
S. typhimurium = assay: Minimal inhibitory concentration (liquid culture); conditions: inoculum 8 × 10^6 CFU/ml; a-b = highest concentration with growth - lowest without growth
E. coli 23802 = assay: Minimal inhibitory concentration (liquid culture); conditions: inoculum 5000 CFU/ml; a-b = highest concentration with growth - lowest without growth
Escherichia coli (K514) = type: cell-based; conditions: agar plate, 50 nanomoles/well, 3 mm wells
E. coli 25922 = assay: Minimal inhibitory concentration (liquid culture); conditions: inoculum 1100 CFU/ml; a-b = highest concentration with growth - lowest without growth
Salmonella typhimurium = assay: Inhibition zone assay (agar plate); type: cell-based; conditions: agar plate, 50 nanomoles/well, 3 mm wells
Legionella pneumophila = type: cell-based; conditions: agar plate, 50 nanomoles/well, 3 mm wells
Enterobacter cloacae = assay: Inhibition zone assay (agar plate); type: cell-based; conditions: agar plate, 50 nanomoles/well, 3 mm wells
Salmonella typhi = type: cell-based; conditions: agar plate, 50 nanomoles/well, 3 mm wells

SMILES | inhibition zone diameter (number of plus signs) (Haemophilus influenzae) | inhibition zone diameter (number of plus signs) (Klebsiella pneumoniae) | minimal inhibitory concentration (MIC) (M. morganii) [µg/mL] | inhibition zone diameter (number of plus signs) (Erwinia amylovora) | minimal inhibitory concentration (MIC) (A. calcoaceticus) [µg/mL] | inhibition zone diameter (number of plus signs) (Campylobacter jejuni) | inhibition zone diameter (number of plus signs) [1] | minimal inhibitory concentration (MIC) (E. coli Apid^R; inoculum 1000 CFU/ml) [µg/mL] | inhibition zone diameter (number of plus signs) [2] | minimal inhibitory concentration (MIC) (Y. enterocolitica) [µg/mL] | inhibition zone diameter (number of plus signs) (Pseudomonas syringae) | inhibition zone diameter (number of plus signs) (Morganella morganii) | inhibition zone diameter (number of plus signs) (Rhizobium meliloti) | inhibition zone diameter (number of plus signs) [3] | inhibition zone diameter (number of plus signs) [4] | minimal inhibitory concentration (MIC) (E. coli 11775; inoculum 16 × 10^6 CFU/ml) [µg/mL] | minimal inhibitory concentration (MIC) (E. coli 11775; inoculum 1200 CFU/ml) [µg/mL] | minimal inhibitory concentration (MIC) (S. typhimurium) [µg/mL] | minimal inhibitory concentration (MIC) (E. coli 23802) [µg/mL] | inhibition zone diameter (number of plus signs) (Escherichia coli (K514)) | further results
CC[C@H](C)[C@H](NC(=O)[C@@H]1CCCN1C(=O)[C@H](C)NC(=O)[C@@H]1CCCN1C(=O)[C@H](CCCNC(=N)N)NC(=O)[C@@H]1CCCN1C(=O)[C@H](CCCCN)NC(=O)[C@@H](N)CO)C(=O)N[C@@H](CCCCN)C(=O)N1CCC[C@H]1C(=O)N[C@@H](CCCNC(=N)N)C(=O)N1CCC[C@H]1C(=O)N1CCC[C@H]1C(=O)N[C@@H](Cc1c[nH]cn1)C(=O)N1CCC[C@H]1C(=O)N[C@@H](CCCNC(=N)N)C(=O)N[C@@H](CC(C)C)C(=O)O [Cd 3-, Ser--Lys--Pro--Arg--Pro--Ala--Pro--Ile--Lys--Pro--Arg--Pro--Pro--His--Pro--Arg--Leu] (H-SKPRPAPIKPRPPHPRL-OH) | +++ ((+++) 10-14 mm) | ++ ((++) 7-9 mm) | 1 to 5 | + ((+) 5-6 mm) | 10 to 20 | ++++ ((++++) 15-19 mm) | ++ ((++) 7-9 mm) | 5 to 10 | ++ ((++) 7-9 mm) | 20 to 40 | ++ ((++) 7-9 mm) | ++ ((++) 7-9 mm) | ++++ ((++++) 15-19 mm) | ++ ((++) 7-9 mm) | + ((+) 5-6 mm) | 0.5 to 1 | 0.1 to 0.5 | 1 to 5 | 5 to 10 | + ((+) 5-6 mm) | minimal inhibitory concentration (MIC) (E. coli Apid^R; inoculum 12 × 10^6 CFU/ml): 5 to 10 µg/mL; inhibition zone diameter (number of plus signs) (Shigella dysenteriae): ++ ((++) 7-9 mm); minimal inhibitory concentration (MIC) (E. coli 25922): 0.5 to 1 µg/mL; inhibition zone diameter (number of plus signs) (Salmonella typhimurium): ++ ((++) 7-9 mm); inhibition zone diameter (number of plus signs) (Legionella pneumophila): ++ ((++) 7-9 mm); inhibition zone diameter (number of plus signs) (Enterobacter cloacae): +++ ((+++) 10-14 mm)
CC[C@H](C)[C@H](NC(=O)[C@@H]1CCCN1C(=O)[C@H](C)NC(=O)[C@@H]1CCCN1C(=O)[C@H](CCCNC(=N)N)NC(=O)[C@@H]1CCCN1C(=O)[C@H](CCCCN)NC(=O)[C@@H](N)CC(N)=O)C(=O)N[C@@H](CCCCN)C(=O)N1CCC[C@H]1C(=O)N[C@@H](CCCNC(=N)N)C(=O)N1CCC[C@H]1C(=O)N1CCC[C@H]1C(=O)N[C@@H](Cc1c[nH]cn1)C(=O)N1CCC[C@H]1C(=O)N[C@@H](CCCNC(=N)N)C(=O)N[C@@H](CC(C)C)C(=O)O [Cd 2-, Asn--Lys--Pro--Arg--Pro--Ala--Pro--Ile--Lys--Pro--Arg--Pro--Pro--His--Pro--Arg--Leu] (H-NKPRPAPIKPRPPHPRL-OH) | ++ ((++) 7-9 mm) | ++ ((++) 7-9 mm) | 1 to 5 | +++ ((+++) 10-14 mm) | 10 to 20 | +++ ((+++) 10-14 mm) | +++ ((+++) 10-14 mm) | 5 to 10 | ++++ ((++++) 15-19 mm) | > 40 | +++ ((+++) 10-14 mm) | ++ ((++) 7-9 mm) | +++ ((+++) 10-14 mm) | ++ ((++) 7-9 mm) | + ((+) 5-6 mm) | 0.5 to 1 | 0.5 to 1 | 1 to 5 | 10 to 20 | ++ ((++) 7-9 mm) | inhibition zone diameter (number of plus signs) (Salmonella typhi): + ((+) 5-6 mm); inhibition zone diameter (number of plus signs) (Shigella dysenteriae): ++ ((++) 7-9 mm); minimal inhibitory concentration (MIC) (E. coli 25922): 0.5 to 1 µg/mL; inhibition zone diameter (number of plus signs) (Salmonella typhimurium): + ((+) 5-6 mm); inhibition zone diameter (number of plus signs) (Legionella pneumophila): ++ ((++) 7-9 mm); inhibition zone diameter (number of plus signs) (Enterobacter cloacae): +++ ((+++) 10-14 mm)
CC[C@H](C)[C@H](NC(=O)[C@@H]1CCCN1C(=O)[C@H](C)NC(=O)[C@@H]1CCCN1C(=O)[C@H](CCCNC(=N)N)NC(=O)[C@@H]1CCCN1C(=O)[C@H](CCCCN)NC(=O)[C@H](CO)NC(=O)[C@@H]1CCCN1C(=O)[C@H](CCCCN)NC(=O)CN)C(=O)N[C@@H](CCCCN)C(=O)N1CCC[C@H]1C(=O)N[C@@H](CCCNC(=N)N)C(=O)N1CCC[C@H]1C(=O)N1CCC[C@H]1C(=O)N[C@@H](Cc1c[nH]cn1)C(=O)N1CCC[C@H]1C(=O)N[C@@H](CCCNC(=N)N)C(=O)N[C@@H](CC(C)C)C(=O)O [Cd 3+, Gly--Lys--Pro--Ser--Lys--Pro--Arg--Pro--Ala--Pro--Ile--Lys--Pro--Arg--Pro--Pro--His--Pro--Arg--Leu] (H-GKPSKPRPAPIKPRPPHPRL-OH) | ++++ ((++++) 15-19 mm) | ++ ((++) 7-9 mm) | 1 to 5 | + ((+) 5-6 mm) | 10 to 20 | +++++ ((+++++) 20 or more min) | ++ ((++) 7-9 mm) | 0.5 to 1 | +++ ((+++) 10-14 mm) | 10 to 20 | ++ ((++) 7-9 mm) | ++ ((++) 7-9 mm) | +++ ((+++) 10-14 mm) | ++ ((++) 7-9 mm) | + ((+) 5-6 mm) | 0.1 to 0.5 | 0.1 to 0.5 | 0.1 to 0.5 | 0.1 to 0.5 | + ((+) 5-6 mm) | minimal inhibitory concentration (MIC) (E. coli Apid^R; inoculum 12 × 10^6 CFU/ml): 0.5 to 1.5 µg/mL; minimal inhibitory concentration (MIC) (E. coli Apid^R; inoculum 12 × 10^6 CFU/ml, listed as Cd3+): measurable activities; inhibition zone diameter (number of plus signs) (Salmonella typhi): ++ ((++) 7-9 mm); inoculum effect on inhibition of viability (E. coli 11775; inoculum sizes differing by four orders of magnitude): equally well; minimal inhibitory concentration (MIC) (E. coli 25922): 0.1 to 0.5 µg/mL; inhibition zone diameter (number of plus signs) (Salmonella typhimurium): ++ ((++) 7-9 mm); inhibition zone diameter (number of plus signs) (Legionella pneumophila): ++ ((++) 7-9 mm); inhibition zone diameter (number of plus signs) (Enterobacter cloacae): +++ ((+++) 10-14 mm)
